Reference: patent US11739098B2 (BRISTOL-MYERS SQUIBB COMPANY, priority 2017, dated 2023)

Key:
Format in all cases: cell-based
human TLR7 = biological target: T1, human TLR7 (Homo sapiens, UniProt Q9NYK1); test: TLR7 inhibition reporter assay (HEK-Blue cells, SEAP reporter, gardiquimod stimulation); conditions: HEK-Blue cells overexpressing human TLR7, SEAP reporter, gardiquimod 7.5 μM
T1 construct: host or cells: HEK-Blue cells (HEK293-derived reporter line)
T1 sequence (Q9NYK1 27-1049): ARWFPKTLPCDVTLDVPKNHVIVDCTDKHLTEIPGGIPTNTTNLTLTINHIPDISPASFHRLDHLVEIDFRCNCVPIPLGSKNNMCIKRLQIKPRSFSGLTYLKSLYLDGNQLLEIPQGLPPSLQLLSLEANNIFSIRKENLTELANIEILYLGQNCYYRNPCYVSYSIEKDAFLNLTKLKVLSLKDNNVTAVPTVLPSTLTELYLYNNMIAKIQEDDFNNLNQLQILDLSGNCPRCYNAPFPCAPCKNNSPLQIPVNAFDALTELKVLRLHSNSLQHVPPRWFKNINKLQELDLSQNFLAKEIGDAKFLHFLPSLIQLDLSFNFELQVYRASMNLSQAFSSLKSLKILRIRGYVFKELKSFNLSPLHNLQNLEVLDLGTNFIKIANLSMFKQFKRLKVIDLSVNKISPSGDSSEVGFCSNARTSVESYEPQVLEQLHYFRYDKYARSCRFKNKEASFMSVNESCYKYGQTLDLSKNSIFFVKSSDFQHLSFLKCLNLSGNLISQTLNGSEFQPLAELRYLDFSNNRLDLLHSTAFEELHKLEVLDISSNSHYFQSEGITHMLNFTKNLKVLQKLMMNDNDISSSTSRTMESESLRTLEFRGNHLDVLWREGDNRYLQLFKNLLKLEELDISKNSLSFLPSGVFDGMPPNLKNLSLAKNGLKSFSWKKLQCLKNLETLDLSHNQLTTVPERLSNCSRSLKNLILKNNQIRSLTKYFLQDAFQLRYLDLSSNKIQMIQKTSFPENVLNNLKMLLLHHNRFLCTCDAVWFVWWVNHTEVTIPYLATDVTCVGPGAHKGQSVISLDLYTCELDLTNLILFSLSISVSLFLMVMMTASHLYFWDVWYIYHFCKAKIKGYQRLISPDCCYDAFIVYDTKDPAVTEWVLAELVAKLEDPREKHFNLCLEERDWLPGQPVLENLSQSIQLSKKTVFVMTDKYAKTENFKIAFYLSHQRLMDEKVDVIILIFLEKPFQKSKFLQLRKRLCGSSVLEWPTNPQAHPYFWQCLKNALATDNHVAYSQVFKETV
Outline: (§1)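 After 22 h at 37 °C, SEAP secretion was measured from human TLR7-, TLR8- or TLR9-expressing HEK-Blue reporter cells given compound (0.05 nM–50 μM) 30 min before agonist: 7.5 μM gardiquimod, 15.9 μM R848 or 5 nM ODN2006 respectively. Percent inhibition referenced to agonist-plus-DMSO and known-inhibitor wells.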

human TLR8 = biological target: T2, human TLR8 (Homo sapiens, UniProt Q9NR97); test: TLR8 inhibition reporter assay (HEK-Blue cells, SEAP reporter, R848 stimulation); conditions: HEK-Blue cells overexpressing human TLR8, SEAP reporter, R848 15.9 μM
T2 construct: host or cells: HEK-Blue cells (HEK293-derived reporter line)
T2 sequence (Q9NR97 27-1041): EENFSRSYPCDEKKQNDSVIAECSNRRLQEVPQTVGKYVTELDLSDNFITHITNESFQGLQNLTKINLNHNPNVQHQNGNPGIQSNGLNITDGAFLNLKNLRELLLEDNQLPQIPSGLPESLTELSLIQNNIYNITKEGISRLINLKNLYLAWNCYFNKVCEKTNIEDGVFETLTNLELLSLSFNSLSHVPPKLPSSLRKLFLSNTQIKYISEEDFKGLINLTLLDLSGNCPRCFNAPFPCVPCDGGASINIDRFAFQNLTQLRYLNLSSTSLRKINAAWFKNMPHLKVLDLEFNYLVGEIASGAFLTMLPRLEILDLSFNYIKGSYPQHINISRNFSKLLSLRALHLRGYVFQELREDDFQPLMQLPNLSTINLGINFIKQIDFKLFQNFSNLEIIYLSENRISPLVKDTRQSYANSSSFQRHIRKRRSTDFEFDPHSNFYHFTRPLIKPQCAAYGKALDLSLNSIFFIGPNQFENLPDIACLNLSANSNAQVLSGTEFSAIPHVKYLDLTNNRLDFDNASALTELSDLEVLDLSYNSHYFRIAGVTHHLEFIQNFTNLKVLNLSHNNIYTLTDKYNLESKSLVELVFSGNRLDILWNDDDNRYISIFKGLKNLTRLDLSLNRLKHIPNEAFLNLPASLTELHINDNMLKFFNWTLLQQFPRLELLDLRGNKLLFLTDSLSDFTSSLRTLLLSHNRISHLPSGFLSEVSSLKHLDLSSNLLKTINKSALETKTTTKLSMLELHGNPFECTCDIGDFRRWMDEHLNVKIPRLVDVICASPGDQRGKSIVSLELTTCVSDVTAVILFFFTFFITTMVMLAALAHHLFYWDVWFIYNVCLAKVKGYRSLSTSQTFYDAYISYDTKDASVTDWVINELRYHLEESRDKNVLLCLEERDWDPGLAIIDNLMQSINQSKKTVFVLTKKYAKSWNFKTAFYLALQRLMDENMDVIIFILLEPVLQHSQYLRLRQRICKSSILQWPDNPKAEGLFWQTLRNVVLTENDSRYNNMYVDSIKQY
Outline: as §1

human TLR9 = biological target: T3, human TLR9 (Homo sapiens, UniProt Q9NR96); test: TLR9 inhibition reporter assay (HEK-Blue cells, SEAP reporter, ODN2006 stimulation); conditions: HEK-Blue cells overexpressing human TLR9, SEAP reporter, ODN2006 5 nM
T3 construct: host or cells: HEK-Blue cells (HEK293-derived reporter line)
T3 sequence (Q9NR96 26-1032): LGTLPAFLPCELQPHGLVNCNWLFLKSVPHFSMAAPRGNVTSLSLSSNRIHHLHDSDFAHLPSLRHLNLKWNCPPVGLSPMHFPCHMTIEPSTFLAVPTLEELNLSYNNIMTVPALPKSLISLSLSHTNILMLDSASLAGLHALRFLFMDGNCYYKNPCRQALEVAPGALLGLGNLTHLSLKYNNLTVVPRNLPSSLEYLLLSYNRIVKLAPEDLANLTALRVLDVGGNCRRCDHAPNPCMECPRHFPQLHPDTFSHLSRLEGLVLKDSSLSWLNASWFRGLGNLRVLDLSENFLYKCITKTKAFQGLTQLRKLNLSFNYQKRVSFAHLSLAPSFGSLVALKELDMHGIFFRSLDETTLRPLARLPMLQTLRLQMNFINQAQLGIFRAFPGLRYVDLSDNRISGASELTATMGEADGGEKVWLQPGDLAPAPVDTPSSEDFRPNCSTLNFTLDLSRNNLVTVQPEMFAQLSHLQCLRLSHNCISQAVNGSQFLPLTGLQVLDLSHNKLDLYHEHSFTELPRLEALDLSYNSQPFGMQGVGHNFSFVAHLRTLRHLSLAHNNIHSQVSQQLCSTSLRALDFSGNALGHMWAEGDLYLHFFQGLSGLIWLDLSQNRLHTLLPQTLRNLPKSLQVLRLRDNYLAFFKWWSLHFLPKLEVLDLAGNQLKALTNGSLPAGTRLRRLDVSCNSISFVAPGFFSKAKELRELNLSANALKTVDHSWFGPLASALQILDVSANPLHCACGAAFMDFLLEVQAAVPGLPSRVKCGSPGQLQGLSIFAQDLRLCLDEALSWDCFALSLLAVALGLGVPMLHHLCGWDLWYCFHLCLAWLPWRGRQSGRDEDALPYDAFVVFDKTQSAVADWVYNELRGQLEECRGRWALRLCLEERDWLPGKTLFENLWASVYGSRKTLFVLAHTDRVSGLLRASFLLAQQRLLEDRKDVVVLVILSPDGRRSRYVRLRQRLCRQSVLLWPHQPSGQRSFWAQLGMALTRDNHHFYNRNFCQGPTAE
Outline: as §1

In the case of `Cc1cc(-c2[nH]c3ccc(C4CCN(CC(C)(C)O)CC4)cc3c2C(C)C)cc2nccn12` [Example 757, 1-(4-(3-isopropyl-2-(5-methylimidazo[1,2-a]pyridin-7-yl)-1H-indol-5-yl)piperidin-1-yl)-2-methylpropan-2-ol], the IC50 (human TLR7) is reported as 1000 to 50000 nM, the IC50 (human TLR8) is reported as 100 to 1000 nM and the IC50 (human TLR9) is reported as 100 to 1000 nM.

In the case of `Cc1nnn2ccc(-c3[nH]c4ccc(C5CCN(C6CCS(=O)(=O)CC6)CC5)cc4c3C(C)C)cc12` [Example 792, 4-(4-(3-isopropyl-2-(3-methyl-[1,2,3]triazolo[1,5-a]pyridin-5-yl)-1H-indol-5-yl)piperidin-1-yl)tetrahydro-2H-thiopyran 1,1-dioxide], the IC50 (human TLR7) is reported as less than 100 nM, the IC50 (human TLR8) is reported as less than 100 nM and the IC50 (human TLR9) is reported as 1000 to 50000 nM.

`COc1c(C)c(-c2[nH]c3ccc(C4CCN(CC(C)(C)O)CC4)cc3c2C(C)C)nn2ncnc12` [Example 748, 1-(4-(3-isopropyl-2-(8-methoxy-7-methyl-[1,2,4]triazolo[1,5-b]pyridazin-6-yl)-1H-indol-5-yl)piperidin-1-yl)-2-methylpropan-2-ol] was tested, and the IC50 (human TLR7) was less than 100 nM, the IC50 (human TLR8) was less than 100 nM and the IC50 (human TLR9) was 1000 to 50000 nM.

Compound `Cc1nnn2ccc(-c3[nH]c4ccc(C5CCN(C6COC6)CC5)cc4c3C(C)C)cc12` [Example 743, 5-(3-isopropyl-5-(1-(oxetan-3-yl)piperidin-4-yl)-1H-indol-2-yl)-3-methyl-[1,2,3]triazolo[1,5-a]pyridine] has an IC50 (human TLR7) of less than 100 nM, an IC50 (human TLR8) of less than 100 nM and an IC50 (human TLR9) of 1000 to 50000 nM.

`Cc1cc(-c2[nH]c3ccc(C4CCNCC4)cc3c2C(C)C)cn2cc(C(=O)N(C)CCO)nc12` [Example 268, N-(2-hydroxyethyl)-6-(3-isopropyl-5-(piperidin-4-yl)-1H-indol-2-yl)-N,8-dimethylimidazo[1,2-a]pyridine-2-carboxamide] showed an IC50 (human TLR7) of less than 100 nM, an IC50 (human TLR8) of less than 100 nM and an IC50 (human TLR9) of 1000 to 50000 nM.

`CNCCN1CCC(c2ccc3[nH]c(-c4ccc5c(c4)OCO5)c(C)c3c2)CC1` [Example 670, 2-(4-(2-(benzo[d][1,3]dioxol-5-yl)-3-methyl-1H-indol-5-yl)piperidin-1-yl)-N-methylethan-1-amine] was tested, and the IC50 (human TLR7) was 100 to 1000 nM, the IC50 (human TLR8) was 100 to 1000 nM and the IC50 (human TLR9) was 1000 to 50000 nM.

`Cc1c(-c2[nH]c3ccc(C4CCNCC4)cc3c2C(C)C)nn2ncnc2c1C` [Example 32, 6-(3-isopropyl-5-(piperidin-4-yl)-1H-indol-2-yl)-7,8-dimethyl-[1,2,4]triazolo[1,5-b]pyridazine] showed an IC50 (human TLR7) of less than 100 nM, an IC50 (human TLR8) of less than 100 nM and an IC50 (human TLR9) of 1000 to 50000 nM.

In the case of `Cc1cnc2[nH]ncc2c1-c1[nH]c2ccc(C3CCNCC3)cc2c1C(C)C` [Example 46, 4-(3-isopropyl-5-(piperidin-4-yl)-1H-indol-2-yl)-5-methyl-1H-pyrazolo[3,4-b]pyridine], the IC50 (human TLR7) is reported as less than 100 nM, the IC50 (human TLR8) is reported as less than 100 nM and the IC50 (human TLR9) is reported as 1000 to 50000 nM.

`CC(C)c1c(-c2ccc3ncnn3n2)[nH]c2ccc(C3CCN(CC(C)(C)O)CC3)cc12` [Example 746, 1-(4-(2-([1,2,4]triazolo[1,5-b]pyridazin-6-yl)-3-isopropyl-1H-indol-5-yl)piperidin-1-yl)-2-methylpropan-2-ol] gave an IC50 (human TLR7) of less than 100 nM, an IC50 (human TLR8) of less than 100 nM and an IC50 (human TLR9) of 1000 to 50000 nM.

`CCc1c(-c2ccnc3[nH]ncc23)[nH]c2ccc(C3CCN(Cc4nccs4)CC3)cc12` [Example 929, 2-((4-(3-ethyl-2-(1H-pyrazolo[3,4-b]pyridin-4-yl)-1H-indol-5-yl)piperidin-1-yl)methyl)thiazole] was tested, and the IC50 (human TLR7) was 100 to 1000 nM, the IC50 (human TLR8) was less than 100 nM and the IC50 (human TLR9) was 1000 to 50000 nM.

`CC(C)c1c(-c2ccn3c(=O)[nH]nc3c2)[nH]c2ccc(C3CCNCC3)cc12` [Example 199, 7-(3-isopropyl-5-(piperidin-4-yl)-1H-indol-2-yl)-[1,2,4]triazolo[4,3-a]pyridin-3(2H)-one] was tested, and the IC50 (human TLR7) was less than 100 nM, the IC50 (human TLR8) was less than 100 nM and the IC50 (human TLR9) was 100 to 1000 nM.

`CC(C)c1c(-c2ccc3nccn3c2)[nH]c2ccc(C3CCN(C)CC3)cc12` [Example 947, 6-(3-isopropyl-5-(1-methylpiperidin-4-yl)-1H-indol-2-yl)imidazo[1,2-a]pyridine] was tested, and the IC50 (human TLR7) was less than 100 nM, the IC50 (human TLR8) was less than 100 nM and the IC50 (human TLR9) was 100 to 1000 nM.

Work on `COc1cc(-c2[nH]c3ccc(C4CCN(C5CCOCC5)CC4)cc3c2C(C)C)cn2ccnc12` [Example 706, 6-(3-isopropyl-5-(1-(tetrahydro-2H-pyran-4-yl)piperidin-4-yl)-1H-indol-2-yl)-8-methoxyimidazo[1,2-a]pyridine] yielded an IC50 (human TLR7) of less than 100 nM, an IC50 (human TLR8) of less than 100 nM and an IC50 (human TLR9) of 100 to 1000 nM.

`CNC(=O)CN1CCC(c2ccc3[nH]c(-c4ccc(C)n5nc(C)nc45)c(C(C)C)c3c2)CC1` [Example 383, 2-(4-(2-(2,5-dimethyl-[1,2,4]triazolo[1,5-a]pyridin-8-yl)-3-isopropyl-1H-indol-5-yl)piperidin-1-yl)-N-methylacetamide] was tested, and the IC50 (human TLR7) was 1000 to 50000 nM, the IC50 (human TLR8) was 100 to 1000 nM and the IC50 (human TLR9) was 1000 to 50000 nM.

`CCc1c(-c2ccnc3[nH]cc(C(C)C)c23)[nH]c2ccc(C3CCNCC3)cc12` [Example 221, 4-(3-ethyl-5-(piperidin-4-yl)-1H-indol-2-yl)-3-isopropyl-1H-pyrrolo[2,3-b]pyridine] gave an IC50 (human TLR7) of 100 to 1000 nM, an IC50 (human TLR8) of 1000 to 50000 nM and an IC50 (human TLR9) of 100 to 1000 nM.
